Source: ChEMBL document CHEMBL1151549, “Design and synthesis of new taxol-containing aminophosphates as protaxols” (Bioorg Med Chem Lett, 1997)
≈ marks a conversion by molar mass, not a printed value.

What follows are compounds tested on HL-60 (assay: Tested in vitro for the anticancer activity against HL-60 leukemia cells). Conditions: Homo sapiens.
Format: functional, cell-based

| IC50 [µg/mL] | Structure (SMILES) |
| --- | --- |
| 4 (≈ 4.04 µM) | CC(=O)O[C@H]1C(=O)[C@@]2(C)[C@H]([C@H](OC(=O)c3ccccc3)[C@]3(O)C[C@H](OC(=O)[C@H](OP(=O)(O)OCCCN)[C@@H](NC(=O)c4ccccc4)c4ccccc4)C(C)=C1C3(C)C)[C@]1(OC(C)=O)CO[C@@H]1C[C@@H]2O |
| 0.3 (≈ 0.299 µM) | CC(=O)O[C@H]1C(=O)[C@@]2(C)[C@H]([C@H](OC(=O)c3ccccc3)[C@]3(O)C[C@H](OC(=O)[C@H](OP(=O)(O)OCCCCN)[C@@H](NC(=O)c4ccccc4)c4ccccc4)C(C)=C1C3(C)C)[C@]1(OC(C)=O)CO[C@@H]1C[C@@H]2O |
| 0.8 (≈ 0.819 µM) | CC(=O)O[C@H]1C(=O)[C@@]2(C)[C@H]([C@H](OC(=O)c3ccccc3)[C@]3(O)C[C@H](OC(=O)[C@H](OP(=O)(O)OCCN)[C@@H](NC(=O)c4ccccc4)c4ccccc4)C(C)=C1C3(C)C)[C@]1(OC(C)=O)CO[C@@H]1C[C@@H]2O |
| 0.001 (≈ 0.00117 µM) | CC(=O)O[C@H]1C(=O)[C@@]2(C)[C@H]([C@H](OC(=O)c3ccccc3)[C@]3(O)C[C@H](OC(=O)[C@H](O)[C@@H](NC(=O)c4ccccc4)c4ccccc4)C(C)=C1C3(C)C)[C@]1(OC(C)=O)CO[C@@H]1C[C@@H]2O [PACLITAXEL] |
